Biological target: angiotensin-converting enzyme (ACE) (Homo sapiens, UniProt P12821)
Test: BioSelact on-line ACE inhibitor bioassay (Kiadis)
Format: biochemical
Details: determined by the BioSelect method of Kiadis of aqueous extracts of the fat+cell fraction
Description: Supernatants of whole fermentations, whey liquids, chloroform and aqueous extracts from fat/cell fractions were all pH adjusted before analysis. First the solutions were adjusted to pH 3. After centrifugation the precipitate was removed. During a second step the pH was adjusted to 7.5 (pH of bioassay). Again precipitate was removed from the solution after centrifugation. The remaining supernatants were used for BioSelact analysis.
250 mg of fat/cell preparation was extracted with 250 μl MilliQ. The solution was positioned on a flat shaker for 2 hours at room temperature. The fat/cell fraction was removed after extraction by centrifugation.
During the first step of the BioSelact analysis, the aqueous solutions were analyzed by applying a general chromatographic gradient: 5-95% MeOH/0.05% TFA in 75 min. For these general analyses a Phenomenex, LUNA C18(2), 5 μm, 2*250 mm analytical column was used. The chromatographic separation was carried out at a flow rate of 0.2 ml/min at ambient temperature. The injection volume was 250 μl. The organic modifier concentration in the Liquid Chromatography (LC) effluent was decreased to bioassay compatible levels by performing continuous dilution using the BioGradient composition from Kiadis. […]
After completing the first general chromatographic ‘sweep’, the presence of bioactivity in each sample was carefully assessed by the Kiadis ACE inhibitor assay. […]

angiotensin-converting enzyme (ACE), sequence (P12821 30-1306, species assumed): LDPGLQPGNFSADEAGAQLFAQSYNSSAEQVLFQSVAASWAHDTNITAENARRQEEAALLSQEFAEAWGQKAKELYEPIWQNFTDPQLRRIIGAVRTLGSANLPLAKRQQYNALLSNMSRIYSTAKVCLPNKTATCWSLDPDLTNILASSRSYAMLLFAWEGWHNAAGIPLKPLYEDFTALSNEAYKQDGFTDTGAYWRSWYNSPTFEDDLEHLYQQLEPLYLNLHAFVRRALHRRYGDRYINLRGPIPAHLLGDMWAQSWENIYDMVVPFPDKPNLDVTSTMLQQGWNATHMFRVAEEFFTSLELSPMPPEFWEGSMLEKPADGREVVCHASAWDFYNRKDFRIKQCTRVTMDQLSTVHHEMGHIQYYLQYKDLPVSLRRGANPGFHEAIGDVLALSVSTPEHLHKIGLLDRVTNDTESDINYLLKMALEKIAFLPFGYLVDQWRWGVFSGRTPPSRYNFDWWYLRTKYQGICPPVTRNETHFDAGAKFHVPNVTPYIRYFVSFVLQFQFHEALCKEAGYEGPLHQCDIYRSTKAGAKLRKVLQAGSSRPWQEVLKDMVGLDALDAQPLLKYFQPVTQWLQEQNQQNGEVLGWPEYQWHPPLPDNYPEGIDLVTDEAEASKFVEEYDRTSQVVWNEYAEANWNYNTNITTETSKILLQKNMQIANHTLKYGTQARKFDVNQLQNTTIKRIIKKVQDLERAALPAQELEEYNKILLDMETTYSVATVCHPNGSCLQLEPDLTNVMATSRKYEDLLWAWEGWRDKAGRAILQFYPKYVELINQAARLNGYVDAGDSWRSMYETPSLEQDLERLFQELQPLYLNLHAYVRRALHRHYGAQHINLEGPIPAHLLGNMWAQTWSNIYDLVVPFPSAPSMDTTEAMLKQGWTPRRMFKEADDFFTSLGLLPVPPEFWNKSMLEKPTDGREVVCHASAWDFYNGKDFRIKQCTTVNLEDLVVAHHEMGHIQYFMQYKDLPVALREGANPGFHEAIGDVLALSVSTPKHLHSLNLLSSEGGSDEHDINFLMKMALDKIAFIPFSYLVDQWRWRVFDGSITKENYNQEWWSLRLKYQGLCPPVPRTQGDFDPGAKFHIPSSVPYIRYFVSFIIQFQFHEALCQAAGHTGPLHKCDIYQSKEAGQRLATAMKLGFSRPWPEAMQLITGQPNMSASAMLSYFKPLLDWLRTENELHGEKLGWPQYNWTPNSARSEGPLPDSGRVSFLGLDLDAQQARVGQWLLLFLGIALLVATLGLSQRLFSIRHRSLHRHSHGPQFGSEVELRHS

Question: Which “Relative inhibition (relative ACE inhibitory activity)” value does the source give for Ile-Pro-Pro [IPP] here?
Answer: Its value is 0.7%.

Source: patent US20080207529A1, “Isolated Dipeptides with Ace Inhibitor Effect” (CHR. HANSEN A/S, priority 2005, published 2008)
